Reference: PMC10227015, “From a drug repositioning to a structure-based drug design approach to tackle acute lymphoblastic leukemia” (Nature Communications, 2023)
Read-outs that look alike come from different tables or passages of the source.

Key:
[1] = system: CCRF-CEM cell line; experiment: dCK cellular assay: CCRF-CEM proliferation in the presence of dT and dC; assay type: cell-based, human
Procedure: The dCK cellular assay was set up to assess the ability to inhibit dCK activity in a cellular model. The model was developed with a T-cell acute lymphoblastic leukemia cell line (CCRF-CEM), because of its high dependence on the SP, thus on dCK activity. Cellular assays were performed to assess the inhibition of cell proliferation under two conditions: (i) in the presence of the compound alone to determine the nonspecific effect on cells, independent of dCK (nonspecific toxicity) and (ii) in the presence of an inhibitor of the DNP to determine the ability of compounds to inhibit dCK and decrease tumor proliferation (activity on dCK). The inhibitor of the DNP chosen for the experiments was thymidine (dT), a physiological inhibitor of ribonucleotide reductase which arrests cell proliferation in phase S. The dTTP produced via thymidine kinase from dT acts as a RNR inhibitor by an allosteric regulation of the R1 subunit. The addition of the nucleoside deoxycytidine (dC) in the medium allows the rescue of cell proliferation by passing only through the salvage pathway, mediated by dCK. dC needs to be added exogenously to mimic physiological concentrations because it is not present in the cell culture medium, on the contrary to mouse model, in which it is naturally present in the serum. Therefore, cell proliferation under these conditions (+dT +dC) is dCK dependent and it is possible to determine the IC50 of dCK inhibitors on the inhibition of cell proliferation. Results are expressed as % cell proliferation relative to the control with DMSO.
The amount of reduced dye formed by metabolically active cells was quantified by its fluorescence measured at 560 nm (excitation) and 590 nm (emission) in a microplate reader (CLARIOstar, BMG Labtech). A blank well without cells was used as a background control. Each experiment was performed at least three times (with technical triplicates) and data are presented as the mean ± SD.

[2] = system: dCK-C3S-S74E; experiment: Thermal shift assay (TSA); details: for THERMAL SHIFT ASSAY +Tm (°): mean ± SD; for ΔTm (º) (TSA): Figure 2a, mean
Chain of dCK-C3S-S74E (P27707 whole entry S74E, form open): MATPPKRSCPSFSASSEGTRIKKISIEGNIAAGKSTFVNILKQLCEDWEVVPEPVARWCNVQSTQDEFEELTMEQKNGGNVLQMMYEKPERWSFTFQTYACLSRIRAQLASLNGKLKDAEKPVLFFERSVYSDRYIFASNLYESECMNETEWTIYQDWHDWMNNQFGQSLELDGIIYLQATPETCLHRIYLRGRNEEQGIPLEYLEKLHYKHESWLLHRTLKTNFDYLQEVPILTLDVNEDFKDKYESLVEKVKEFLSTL

[3] = Homo sapiens, read-out: dCK CELLULAR ASSAY IC50 (nM), CCRF-CEM, 200 µM dT and 1 µM dC, read-out: dCK […] ASSAY IC50
[4] = Homo sapiens, Figure 2a, CCRF-CEM cell line, mean, read-out: IC50 (nM) (Cell Prolif)
[5] = Figure 2a, CCRF-CEM cell line, mean, read-out: IC50 (nM) (Cell Prolif)

Row | SMILES | IC50 [1, 3] [nM] | THERMAL SHIFT ASSAY +Tm (°) [2] [°] | IC50 [1, 4] [nM] | ΔTm (º) (TSA) [2] | IC50 [1, 5] [nM]
1 | Cc1ccc(NC(=O)c2cnc(CN3CCN(C)CC3)nc2)cc1Nc1nc(-c2nccc(N)n2)cs1 [OR0125] | 37700 ± 4380 | 10.3 ± 0.0 |  |  | 
2 | Cc1ccc(Oc2ccc(CN3CCN(C)CC3)cc2)cc1Nc1nc(-c2nccc(N)n2)cs1 [OR0143] | 2790 ± 1740 | 13.2 ± 0.2 |  |  | 
3 | CN1CCN(CCc2ccc(-c3ccc4c(c3)N(c3nc(-c5nccc(N)n5)cs3)CCCC4)cc2)CC1 [OR0402] | 1760 ± 160 | 19.2 ± 0.3 |  |  | 
4 | Cc1ccc(-c2ccc(CCN3CCN(C)CC3)cc2)cc1N(CC1CC1)c1nc(-c2nc(N)cc(N)n2)cs1 [OR0604] |  | 19.7 ± 1.0 | 609 | 19.7 º | 
5 | Cc1ccc(-c2ccc(CCN3CCN(C)CC3)cc2)cc1N(CCC(C)C)c1nc(-c2nc(N)cc(N)n2)cs1 [OR0605] |  | 18.7 ± 0.6 | 2220 | 18.67 º | 
6 | CCCCN(c1nc(-c2nc(N)cc(N)n2)cs1)c1cc(-c2ccc(CCN3CCN(C)CC3)cc2)ccc1C [OR0606] |  | 19.9 ± 0.5 | 552 | 19.85 º | 
7 | Cc1ccc(-n2cc(CNS(C)(=O)=O)nn2)cc1N(CC(C)C)c1nc(-c2nc(N)cc(N)n2)cs1 [OR0609] |  | 13.5 ± 0.7 |  | 13.5 º | 3180
8 | Cc1ccc(-c2ccc(CCN3CCN(C)CC3)cc2)cc1N(CCN)c1nc(-c2nc(N)cc(N)n2)cs1 [OR0610] |  | 14.7 ± 0.2 | 16400 | 14.7 º | 
9 | CCCN(c1nc(-c2nc(N)cc(N)n2)cs1)c1cc(-c2ccc(NC(=O)N3CCN(C)CC3)nc2)ccc1C [OR0616] |  | 19.2 ± 0.8 | 135 | 19.23 º | 
10 | CCCN(c1nc(-c2nc(N)cc(N)n2)cs1)c1cc(-c2ccc(CN(C)C)cc2)ccc1C [OR0619] |  | 16.9 ± 0.5 | 614 | 16.88 º | 
11 | CCCN(c1nc(-c2nc(N)cc(N)n2)cs1)c1cc(-c2cccnc2)ccc1C [OR0620] |  | 15.7 ± 0.5 | 407 | 15.71 º | 
12 | CCCN(c1nc(-c2nc(N)cc(N)n2)cs1)c1cc(-c2ccc(C(=O)N3CCOCC3)nc2)ccc1C [OR0621] |  | 16.6 ± 0.9 | 169 | 16.63 º | 
13 | CCCN(c1nc(-c2nc(N)cc(N)n2)cs1)c1cc(-c2ccc(C(=O)OC)nc2)ccc1C [OR0622] |  | 16.5 ± 0.1 | 416 | 16.54 º | 
14 | CCCN(c1nc(-c2nc(N)cc(N)n2)cs1)c1cc(-c2ccc(NS(=O)(=O)N3CCN(C)CC3)nc2)ccc1C [OR0625] |  | 16.8 ± 0.7 | 353 | 16.82 º | 
15 | CCCN(c1nc(-c2nc(N)cc(N)n2)cs1)c1cc(-c2ccc3[nH]ccc3c2)ccc1C [OR0626] |  | 16.9 ± 0.5 | 5750 | 16.85 º | 
16 | CCCN(c1nc(-c2nc(N)cc(N)n2)cs1)c1cc(-c2ccc(OCCN3CCN(C)CC3)nc2)ccc1C [OR0629] |  | 20.6 ± 0.1 | 139 | 20.6 º | 
17 | Cc1ccc(-c2ccc(S(=O)(=O)N3CCN(C)CC3)cc2)cc1N(C)c1nc(-c2nc(N)cc(N)n2)cs1 [OR0631] |  | 16.8 ± 0.1 | 2740 | 16.75 º | 

Row | SMILES | IC50 [1, 3] [nM] | THERMAL SHIFT ASSAY +Tm (°) [2] [°] | IC50 [1, 4] [nM] | ΔTm (º) (TSA) [2] | IC50 [1, 5] [nM]
18 | CCN(c1nc(-c2nc(N)cc(N)n2)cs1)c1cc(-c2ccc(S(=O)(=O)N3CCN(C)CC3)cc2)ccc1C [OR0632] |  | 17.8 ± 0.1 | 413 | 17.75 º | 
19 | CCCN(c1nc(-c2nc(N)cc(N)n2)cs1)c1cc(-c2ccc(S(=O)(=O)N3CCN(C)CC3)cc2)cc(F)c1C [OR0633] |  | 17.3 ± 0.1 | 140 | 17.25 º | 
20 | Cc1ccc(-c2ccc(S(=O)(=O)N3CCN(C)CC3)cc2)cc1N(c1nc(-c2nc(N)cc(N)n2)cs1)C(C)C [OR0636] |  | 17.7 ± 0.9 | 301 | 17.68 º | 
21 | Cc1ccc(-c2ccc(S(=O)(=O)N3CCN(C)CC3)cc2)cc1N(CC(C)C)c1nc(-c2nc(N)cc(N)n2)cs1 [OR0637] | 84 ± 49 | 20.5 ± 0.9 | 88.3 | 20.49 º | 
22 | CCCN(c1nc(-c2nc(N)cc(N)n2)cs1)c1cc(-c2ccc(S(=O)(=O)N3CCN(CC)CC3)cc2)ccc1C [OR0638] |  | 20.2 ± 0.9 | 35 | 20.22 º | 
23 | CCCN(c1nc(-c2nc(N)cc(N)n2)cs1)c1cc(-c2ccc(S(=O)(=O)N3CCNCC3)cc2)ccc1C [OR0639] |  | 20.7 ± 0.9 | 119 | 20.72 º | 
24 | CCCN(c1nc(-c2nc(N)cc(N)n2)co1)c1cc(-c2ccc(S(=O)(=O)N3CCN(C)CC3)cc2)ccc1C [OR0640] |  | 18.2 ± 0.9 | 3670 | 18.22 º | 
25 | CCCN(c1nc(-c2nc(N)cc(N)n2)cs1)c1cc(-c2ccc(S(=O)(=O)N3CCN(C)CC3)cc2Cl)ccc1C [OR0641] | 10.5 ± 5 | 21.1 ± 1.1 | 10 | 21.11 º | 
26 | CCCN(c1nc(-c2nc(N)cc(N)n2)cs1)c1cc(-c2ccc(S(=O)(=O)N3CCN(C)CC3)cc2F)ccc1C [OR0643] | 46 ± 18 | 20.2 ± 0.9 | 45.7 | 20.22 º | 
27 | CCCN(c1nc(-c2nc(N)cc(N)n2)cs1)c1cc(-c2c(F)cc(S(=O)(=O)N3CCN(C)CC3)cc2OC)ccc1C [OR0644] |  | 20.5 ± 1.2 | 12.1 | 20.5 º | 
28 | CCCN(c1nc(-c2nc(N)cc(N)n2)cs1)c1cc(-c2ccc(S(=O)(=O)N3CCN(C)CC3)cc2OC)ccc1C [OR0645] | 67 ± 22 | 19.7 ± 0.9 | 67.4 | 19.72 º | 
29 | CCCN(c1nc(-c2nc(N)cc(N)n2)cs1)c1cc(-c2ccc(S(=O)(=O)C3CCNCC3)cc2)ccc1C [OR0646] |  | 22.4 ± 1.1 | 171 | 22.39 º | 
30 | CCCN(c1nc(-c2nc(N)cc(N)n2)cs1)c1cc(-c2c(F)cc(S(=O)(=O)N3CCN(C)CC3)cc2F)ccc1C [OR0647] | 10.9 ± 4.1 | 21.1 ± 1.6 | 11 | 21.06 º | 
31 | CCCN(c1nc(-c2nc(N)cc(N)n2)cs1)c1cc(-c2ccc(S(=O)(=O)N3CCC(N)CC3)cc2)ccc1C [OR0648] |  | 22.3 ± 1.1 | 134 | 22.28 º | 
32 | CCCN(c1nc(-c2nc(N)cc(N)n2)cs1)c1cc(-c2ccc(S(=O)(=O)N3CCN(C)CC3)c(OC(F)(F)F)c2)ccc1C [OR0650] |  | 18.6 ± 1.5 | 120 | 18.61 º | 
33 | CCCN(c1nc(-c2nc(N)cc(N)n2)cs1)c1cc(-c2ccc(S(=O)(=O)NCCN)cc2)ccc1C [OR0651] | 1520 ± 178 | 20.8 ± 1.2 | 1530 | 20.83 º | 
34 | CCCN(c1nc(-c2nc(N)cc(N)n2)cs1)c1cc(-c2cnc(S(=O)(=O)N3CCN(C)CC3)cc2C)ccc1C [OR0652] |  |  |  | 19.17 º | 7.3
